{"source": "patent US20070015823A1", "about": "“Ambruticin VS compounds” (priority 2004, published 2007)", "key": {"Candida parapsilosis": {"test_system": "Candida parapsilosis", "assay": "microbe, parasite or virus in culture", "conditions": "Lodderomyces parapsilosis, read-out: MIC0 C. parapsilosis 92019"}, "A. flavus ATCC 204304": {"test_system": "A. flavus ATCC 204304", "assay": "Broth microdilution antifungal susceptibility, NCCLS M38-A", "type": "cell-based, Aspergillus flavus", "conditions": "Aspergillus flavus, ATCC204304, read-out: MIC0 A. flavus ATCC 204304"}, "Fusarium solani": {"test_system": "Fusarium solani", "assay": "Broth microdilution antifungal susceptibility, NCCLS M38-A", "type": "cell-based", "conditions": "Fusarium solani, read-out: MIC F. solani 96-1"}, "Candida krusei": {"test_system": "Candida krusei", "conditions": "Pichia kudriavzevii, read-out: MIC0 C. krusei 6258"}, "Blastomyces dermatitidis": {"test_system": "Blastomyces dermatitidis", "assay": "Broth microdilution antifungal susceptibility, NCCLS M38-A", "type": "cell-based", "conditions": "Blastomyces dermatitidis"}, "S. apiospermum": {"test_system": "S. apiospermum", "assay": "Broth microdilution antifungal susceptibility, NCCLS M38-A", "type": "cell-based, Scedosporium apiospermum", "conditions": "Scedosporium apiospermum"}, "Cryptococcus neoformans": {"test_system": "Cryptococcus neoformans", "assay": "Broth microdilution antifungal susceptibility, NCCLS M38-A", "conditions": "Cryptococcus neoformans"}, "Candida albicans": {"test_system": "Candida albicans", "conditions": "Candida albicans, read-out: MIC0 C. albicans 90028"}, "A. fumigatus ATCC 204305": {"test_system": "A. fumigatus ATCC 204305", "assay": "Broth microdilution antifungal susceptibility, NCCLS M38-A", "type": "cell-based, Aspergillus fumigatus", "conditions": "Aspergillus fumigatus, ATCC204305, read-out: MIC0 A. fumigatus ATCC 204305"}}, "note": "Read-outs that look alike come from different tables or passages of the source.", "data": [{"smiles": "CCC(C)n1ncn(-c2ccc(N3CCN(c4ccc(OCC5COC(Cn6cncn6)(c6ccc(Cl)cc6Cl)O5)cc4)CC3)cc2)c1=O", "note": "(centres unmarked) [Itraconazole, reference compound]", "values": [{"measurement": "MIC", "setting": "Candida parapsilosis", "result": 0.25, "unit": "µg/mL"}, {"measurement": "MIC", "setting": "A. flavus ATCC 204304", "result": 0.47, "unit": "µg/mL"}, {"measurement": "MIC", "setting": "Fusarium solani", "result": "> 4", "unit": "µg/mL"}, {"measurement": "MIC", "setting": "Candida krusei", "result": 0.25, "unit": "µg/mL"}, {"measurement": "MIC", "setting": "Blastomyces dermatitidis; read-out: MIC0 Blastomyces dermatitidis 04-2167", "result": 0.03, "unit": "µg/mL"}, {"measurement": "MIC", "setting": "Blastomyces dermatitidis; read-out: MIC0 Blastomyces dermatitidis 04-2508", "result": 0.03, "unit": "µg/mL"}, {"measurement": "MIC", "setting": "Blastomyces dermatitidis; read-out: MIC0 Blastomyces dermatitidis 04-2915", "result": 0.06, "unit": "µg/mL"}, {"measurement": "MIC", "setting": "Blastomyces dermatitidis; read-out: MIC0 Blastomyces dermatitidis 05-106", "result": 0.06, "unit": "µg/mL"}, {"measurement": "MIC", "setting": "Blastomyces dermatitidis; read-out: MIC0 Blastomyces dermatitidis 05-186", "result": 0.06, "unit": "µg/mL"}, {"measurement": "MIC", "setting": "Blastomyces dermatitidis; read-out: MIC0 Blastomyces dermatitidis 05-1391", "result": 0.03, "unit": "µg/mL"}, {"measurement": "MIC", "setting": "Blastomyces dermatitidis; read-out: MIC0 Blastomyces dermatitidis 05-1707", "result": "≤ 0.015", "unit": "µg/mL"}, {"measurement": "MIC", "setting": "Blastomyces dermatitidis; read-out: MIC0 Blastomyces dermatitidis 05-1820", "result": "≤ 0.015", "unit": "µg/mL"}, {"measurement": "MIC", "setting": "Blastomyces dermatitidis; read-out: MIC0 Blastomyces dermatitidis 05-1829", "result": 0.06, "unit": "µg/mL"}, {"measurement": "MIC", "setting": "Blastomyces dermatitidis; read-out: MIC0 Blastomyces dermatitidis 05-2020", "result": "≤ 0.015", "unit": "µg/mL"}, {"measurement": "MIC", "setting": "Blastomyces dermatitidis; read-out: MIC0 Blastomyces dermatitidis R-3529", "result": "≤ 0.015", "unit": "µg/mL"}, {"measurement": "MIC", "setting": "Blastomyces dermatitidis; read-out: MIC0 Blastomyces dermatitidis R-35629", "result": "≤ 0.015", "unit": "µg/mL"}, {"measurement": "MIC", "setting": "S. apiospermum; read-out: MIC S. apiospermum 98-38", "result": "1 to 4", "unit": "µg/mL"}, {"measurement": "MIC", "setting": "S. apiospermum; read-out: MIC S. apiospermum 98-89", "result": "1 to 2", "unit": "µg/mL"}, {"measurement": "MIC", "setting": "Cryptococcus neoformans; read-out: MIC C. neoformans 97-14", "result": 0.125, "unit": "µg/mL"}, {"measurement": "MIC", "setting": "Cryptococcus neoformans; read-out: MIC C. neoformans 11239", "result": 0.031, "unit": "µg/mL"}, {"measurement": "MIC", "setting": "Cryptococcus neoformans; read-out: MIC C. neoformans 11240", "result": 0.313, "unit": "µg/mL"}, {"measurement": "MIC", "setting": "Candida albicans", "result": 0.25, "unit": "µg/mL"}, {"measurement": "MIC", "setting": "A. fumigatus ATCC 204305", "result": 0.58, "unit": "µg/mL"}]}]}
